# Assay results reported in paper PMC11230492, “Targeting Unique Ligand Binding Domain Structural Features Downregulates DKK1 in Y537S ESR1 Mutant Breast Cancer Cells” (Research Square, 2024).
# Biological target: T1, estrogen receptor alpha (ERα) ligand binding domain (Homo sapiens, UniProt P03372, C381S/C417S/C530S/Y537S)
# T1 construct: gene ESR1
# T1 sequence (P03372 300-550 C381S/C417S/C530S/Y537S): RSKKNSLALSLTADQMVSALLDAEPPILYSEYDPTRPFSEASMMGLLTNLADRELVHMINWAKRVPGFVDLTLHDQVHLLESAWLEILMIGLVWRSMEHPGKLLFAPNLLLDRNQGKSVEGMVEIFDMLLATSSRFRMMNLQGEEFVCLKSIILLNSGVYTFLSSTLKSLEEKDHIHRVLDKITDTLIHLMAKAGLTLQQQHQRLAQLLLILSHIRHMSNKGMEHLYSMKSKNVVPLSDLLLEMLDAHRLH
# Assay: X-ray co-crystal structure, […] Å
smiles,measurement,value
O=C(c1ccccc1)N1C(c2ccc(OCC3CCN(CCCF)C3)cc2)c2ccc(O)cc2CC12CC2 (stereo not shown) [T6I-29],"X-ray co-crystal structure, 2.20 Å",we solved an x-ray co-crystal structure of T6I-29 in complex with Y537S ERα LBD
